Experiment: xn = mol fraction of the nth substance listed

CCCCCCCCCCCCCCCC[n+]1ccccc1.O=C([O-])C(O)c1ccccc1 + O
electrical conductivity [S/m], 101 kPa
Conditions | 293.15 K | 298.15 K | 303.15 K | 308.15 K | 313.15 K
x1 = 1.08e-06 | 0.00061 | 0.00068 | 0.00076 | 0.00083 | 0.0009
x1 = 1.98e-06 | 0.001 | 0.0012 | 0.0013 | 0.0014 | 0.0016
x1 = 2.88e-06 | 0.00147 | 0.0016 | 0.0018 | 0.002 | 0.0022
x1 = 3.96e-06 | 0.0019 | 0.0022 | 0.0024 | 0.0026 | 0.0029
x1 = 4.69e-06 | 0.0023 | 0.0026 | 0.0029 | 0.0031 | 0.0035
x1 = 5.95e-06 | 0.00281 | 0.0032 | 0.0035 | 0.0038 | 0.0042
x1 = 7.21e-06 | 0.00341 | 0.0038 | 0.0042 | 0.0046 | 0.0051
x1 = 8.83e-06 | 0.00406 | 0.0046 | 0.005 | 0.0055 | 0.006
x1 = 1.045e-05 | 0.00469 | 0.0053 | 0.0058 | 0.0065 | 0.0071
x1 = 1.207e-05 | 0.00516 | 0.0058 | 0.0064 | 0.0071 | 0.0079
x1 = 1.351e-05 | 0.00562 | 0.00631 | 0.007 | 0.0077 | 0.0085
x1 = 1.478e-05 | 0.00603 | 0.0068 | 0.0075 | 0.0083 | 0.0092
x1 = 1.622e-05 | 0.00644 | 0.0072 | 0.008 | 0.0089 | 0.0098
x1 = 1.766e-05 | 0.00687 | 0.0077 | 0.0085 | 0.0094 | 0.0104

COCCOCCO + CCCC[n+]1ccn(C)c1.F[B-](F)(F)F
100 kPa
Conditions | viscosity [mPa·s]
283.15 K, x2 = 0.05366 | 7.07
283.15 K, x2 = 0.09486 | 8.3
283.15 K, x2 = 0.1969 | 12.44
283.15 K, x2 = 0.2893 | 17.54
283.15 K, x2 = 0.3913 | 25.12
283.15 K, x2 = 0.4909 | 35.39
283.15 K, x2 = 0.5826 | 48.46
283.15 K, x2 = 0.6949 | 71.9
283.15 K, x2 = 0.7838 | 100
283.15 K, x2 = 0.8792 | 145
283.15 K, x2 = 0.9489 | 192.9
293.15 K, x2 = 0.04883 | 4.923
293.15 K, x2 = 0.09356 | 5.88
293.15 K, x2 = 0.192 | 8.36
293.15 K, x2 = 0.292 | 11.92
293.15 K, x2 = 0.3812 | 15.94
293.15 K, x2 = 0.4892 | 22.53
293.15 K, x2 = 0.5841 | 30.52
293.15 K, x2 = 0.6808 | 41.95
293.15 K, x2 = 0.7796 | 58.1
293.15 K, x2 = 0.8752 | 81.9
293.15 K, x2 = 0.9414 | 109.4
303.15 K, x2 = 0.05005 | 3.91
303.15 K, x2 = 0.1374 | 4.662
303.15 K, x2 = 0.2026 | 6.323
303.15 K, x2 = 0.2965 | 8.36
303.15 K, x2 = 0.3975 | 11.28
303.15 K, x2 = 0.491 | 15.38
303.15 K, x2 = 0.5868 | 20.14
303.15 K, x2 = 0.6897 | 27.27
303.15 K, x2 = 0.7826 | 36.34
303.15 K, x2 = 0.8807 | 50.95
303.15 K, x2 = 0.9393 | 63.1
313.15 K, x2 = 0.04527 | 2.966
313.15 K, x2 = 0.09794 | 3.523
313.15 K, x2 = 0.2017 | 4.838
313.15 K, x2 = 0.2869 | 6.194
313.15 K, x2 = 0.3858 | 8.06
313.15 K, x2 = 0.4987 | 10.87
313.15 K, x2 = 0.5953 | 13.94
313.15 K, x2 = 0.6918 | 18.09
313.15 K, x2 = 0.7818 | 23.11
313.15 K, x2 = 0.8804 | 29.78
313.15 K, x2 = 0.9409 | 34.99

COP(=O)([O-])OC.Cn1cc[n+](C)c1 + CN(CCO)CCO + O
Conditions | viscosity [mPa·s]
343.15 K, x2 = 0.4346, x3 = 0.3656 | 10.65

C[S+](C)C.O=S(=O)([N-]S(=O)(=O)C(F)(F)F)C(F)(F)F + CC1COC(=O)O1
101 kPa
Conditions | electrical conductivity [S/m]
283.15 K, x2 = 0.76 | 0.862
298.15 K, x1 = 0.0005 | 0.035
298.15 K, x1 = 0.0008 | 0.044
298.15 K, x2 = 0.6202 | 1.29
333.15 K, x2 = 0.76 | 2.54

CN1CCCN(C)C1=O + CCCCCC[n+]1ccn(C)c1.[Cl-]
viscosity [mPa·s], 100 kPa
Conditions | 288.15 K | 293.15 K | 298.15 K | 303.15 K | 308.15 K | 313.15 K | 318.15 K | 323.15 K | 328.15 K | 333.15 K
x2 = 0 | 4 | 3.51 | 3.11 | 2.78 | 2.5 | 2.266 | 2.064 | 1.891 | 1.737 | 1.595
x2 = 0.1011 | 9.78 | 8.21 | 6.99 | 6.01 | 5.22 | 4.59 | 4.06 | 3.63 | 3.25 | 2.94
x2 = 0.1987 | 29.2 | 23.3 | 18.82 | 15.64 | 13.14 | 10.05 | 8.62 | 7.47 | 6.53 | 5.75
x2 = 0.3083 | 77.7 | 59.1 | 45.8 | 36.3 | 29.2 | 23.9 | 19.81 | 16.38 | 13.92 | 12.29
x2 = 0.3981 | 184 | 133.6 | 99.3 | 75.6 | 63.8 | 50.5 | 40.6 | 33 | 27.5 | 23.11
x2 = 0.4957 | 412 | 283 | 215 | 157.4 | 117.8 | 90.1 | 70.2 | 55.6 | 44.6 | 36.3
x2 = 0.6008 | 897 | 600 | 418 | 296 | 215 | 158 | 121 | 93.6 | 73.9 | 58.6
x2 = 0.6983 | 2019 | 1294 | 856 | 583 | 408 | 294 | 215 | 163.7 | 124.9 | 96.8
x2 = 0.7961 | – | 2416 | 1565 | 1044 | 708 | 496 | 357 | 261 | 196 | 148.4

CCCCCCCC[P+](CC)(CC)CC.O=[N+]([O-])c1cn[n-]c1 + COCCOCCOCCOCCOC
100 kPa
Conditions | viscosity [mPa·s]
278.15 K, x2 = 0.503 | 78
283.15 K, x2 = 0 | 868
283.15 K, x2 = 0.404 | 97
288.15 K, x2 = 0 | 578
288.15 K, x2 = 0.102 | 327
303.15 K, x2 = 0.051 | 170
308.15 K, x2 = 0.199 | 69
313.15 K, x2 = 0.199 | 55
318.15 K, x2 = 0 | 94

CC(C)(C)O + CCCC[n+]1ccn(C)c1.O=S(=O)([N-]S(=O)(=O)C(F)(F)F)C(F)(F)F
298 K, 101 kPa
Conditions | electrical conductivity [S/m] | viscosity [mPa·s]
x1 = 0.6042 | 0.52 | –
x1 = 0.653 | 0.504 | –
x1 = 0.8516 | – | 9.27
x2 = 0.0182 | – | 4.38

CCCCCC[n+]1ccn(C)c1.F[B-](F)(F)F + CCCCCC[n+]1ccn(C)c1.[Cl-]
101 kPa, x2 = 0
Conditions | electrical conductivity [S/m] | viscosity [mPa·s]
303 K | 0.16 | –
303.15 K | – | 189
308 K | 0.205 | –
308.15 K | – | 145
313 K | 0.259 | –
313.15 K | – | 114
318 K | 0.322 | –
318.15 K | – | 90
323 K | 0.397 | –
323.15 K | – | 73
328 K | 0.481 | –
328.15 K | – | 60
333 K | 0.576 | –
333.15 K | – | 49
